Measurements: patent publication US4009273A, “Substituted 10,11-dihydro-5,10-imino-[5H] dibenzo (a,d)-cycloheptene” (priority 1972, dated 1977)

How the values were obtained:
[1] = system: reserpine ptosis of the eyelid; assay: Antidepressant activity: antagonism of reserpine eyelid ptosis; format: in vivo, rats; settings: 1 h before 1 mg/kg reserpine
Description: The antidepressant activity was determined by antagonism exercised by the compounds against the depressant activity of reserpine and this effect was determined by ptosis of the eyelid test codified by Rubin [J. Pharm. Exp. Ther., Vol. 120 (1957), p. 125]. The eyelid ptosis test is used to make a quantitative evaluation of the condition of the animal, but the antagonism exercised equally against the neuro depressive symptoms of reserpine; immobility, adynamia, hypothermia, myosis, etc. The reading was effected every hour for 6 hours after intraperitoneal injection of 1 mg/kg of reserpine to groups of rats who had one hour previously received intraperitoneally a variable dose of the test compounds. The ptosis provoked by the reserpine injection was diminished by the previous injection of the test compounds, all the more so at the elevated doses. The results were expressed as a percentage of protection compared to controls which received only reserpine and are reported in Table IV.

Acute toxicity = settings: mouse, in vivo, ip, Swiss mice, observed for a week
Description: The acute toxicity was determined on groups of Swiss mice weighing 18 to 22 g and the test products were administered intraperitoneally in increasing doses and the animals were kept under observation for a week.

DOPA = assay: Potentialization of DOPA; format: in vivo, mice (male); settings: 1 h before 50 mg/kg DOPA
Description: In this test, DOPA [racemic β-(3,4-dihydroxyphenyl)-alanine] was administered to mice pretreated with 1-isonicotinoyl-2-isopropyl-hydrazine18 hours before the test which product caused the following symptoms: hypertonicity, agitation, crying, aggressiveness, salivation and exophthalmia. The administration of an antidepressant one hour before the DOPA injection potentializes the intensity of the effects.
Male mice weighing between 18 to 22 g received intraperitoneally 50 mg/kg of 1-isonicotinoyl-2-isopropyl-hydrazine and 18 hours later the test product intraperitoneally in aqueous solution in increasing doses and 1 hour later received an intraperitoneal injection of 50 mg/kg of DOPA. The different effects were evaluated 15 and 30 minutes after the DOPA injection and each symptom was evaluated for each animal on a scale from 0 to 3 and the evaluations for each dose was totaled. The totals are reported in Table III as a percent of the total of control animals.

amytal sleeping time = assay: Potentialization of sleeping time (amytal); format: in vivo, mice (female); settings: 1 h before 80 mg/kg amytal i.v.
Description: The potentialization of sleeping time was determined with a test using amytal [5-ethyl-5-isoamyl-barbituric acid] in which groups of female mice weighing between 18 and 22 g were kept at 25° C for the duration of the test. The test products were administered intraperitoneally at different doses one hour before intraveinous injection of 80 mg/kg of amytal and the sleeping time was noted which is the time while the reflux of straightening in the mice was negative.

Structure (SMILES) | % Protection ([1]; 2 mg/Kg i.p.) | % Protection ([1]; 10 mg/Kg i.p.) | % Protection ([1]; 20 mg/Kg i.p.) | % Protection ([1]; 50 mg/Kg i.p.) | LD50 at 168 h (Acute toxicity) | total symptom score as percent of the total of control animals (DOPA; 10 mg/Kg i.p.) | total symptom score as percent of the total of control animals (DOPA; 20 mg/Kg i.p.) | total symptom score as percent of the total of control animals (DOPA; 50 mg/Kg i.p.) | average sleeping time (amytal sleeping time; 5 mg/Kg i.p.) | average sleeping time (amytal sleeping time; 10 mg/Kg i.p.) | average sleeping time (amytal sleeping time; 20 mg/Kg i.p.) | average sleeping time (amytal sleeping time; 50 mg/Kg i.p.)
CNCCN1C2Cc3ccccc3C1c1ccccc12 (stereo not drawn) [Example 28, 12-(2'-methylaminoethyl)-10,11-dihydro-5,10-imino-[5H]-dibenzo (a,d) cycloheptene dl] | 10% | 43% | 60% | 84% | ~150 mg/kg | – | – | – | – | – | – | –
CN(C)CCN1C2Cc3ccccc3C1c1ccccc12 (stereo not drawn) [Example 29, 12-(2'-dimethylaminoethyl)-10,11-dihydro-5,10-imino-[5H]-dibenzo (a,d) cycloheptene dl] | 9% | 40% | 39% | 66% | ~180 mg/kg | 81% | 101% | 177% | – | – | – | –
NCCN1C2Cc3ccccc3C1c1ccccc12 (stereo not drawn) [Example 30, 12-(2'-aminoethyl)-10,11-dihydro-5,10-imino-[5H]-dibenzo (a,d) cycloheptene dl] | 18% | 38% | 69% | 74% | ~150 mg/kg | 113% | 150% | – | 46.3 min | 38.1 min | 64.1 min | 89.0 min
